Molecular target: T1, CFTR-ΔF508 (Homo sapiens, UniProt P13569, DEL508-508)
T1 construct: expressed in transfected cells
Test: Cell surface ELISA (anti-HA) in HeLa cells stably expressing HA-tagged CFTR-ΔF508
Type: cell-based
Details: for surface display of ΔF508-CFTR (live cell-surface ELISA): HeLa-ΔF508-CFTR-HA cells treated daily with drugs, 72 hr post-treatment, vs DMSO (FIG. 28, 29); for mutant CFTR at the cell surface (ELISA): HeLa cells, CFTR-ΔF508-3HA under CMV promoter, oligonucleotide transfection, 6, 12, 24 hrs

T1 sequence (P13569 with tags, fused parts or gaps DEL508-508): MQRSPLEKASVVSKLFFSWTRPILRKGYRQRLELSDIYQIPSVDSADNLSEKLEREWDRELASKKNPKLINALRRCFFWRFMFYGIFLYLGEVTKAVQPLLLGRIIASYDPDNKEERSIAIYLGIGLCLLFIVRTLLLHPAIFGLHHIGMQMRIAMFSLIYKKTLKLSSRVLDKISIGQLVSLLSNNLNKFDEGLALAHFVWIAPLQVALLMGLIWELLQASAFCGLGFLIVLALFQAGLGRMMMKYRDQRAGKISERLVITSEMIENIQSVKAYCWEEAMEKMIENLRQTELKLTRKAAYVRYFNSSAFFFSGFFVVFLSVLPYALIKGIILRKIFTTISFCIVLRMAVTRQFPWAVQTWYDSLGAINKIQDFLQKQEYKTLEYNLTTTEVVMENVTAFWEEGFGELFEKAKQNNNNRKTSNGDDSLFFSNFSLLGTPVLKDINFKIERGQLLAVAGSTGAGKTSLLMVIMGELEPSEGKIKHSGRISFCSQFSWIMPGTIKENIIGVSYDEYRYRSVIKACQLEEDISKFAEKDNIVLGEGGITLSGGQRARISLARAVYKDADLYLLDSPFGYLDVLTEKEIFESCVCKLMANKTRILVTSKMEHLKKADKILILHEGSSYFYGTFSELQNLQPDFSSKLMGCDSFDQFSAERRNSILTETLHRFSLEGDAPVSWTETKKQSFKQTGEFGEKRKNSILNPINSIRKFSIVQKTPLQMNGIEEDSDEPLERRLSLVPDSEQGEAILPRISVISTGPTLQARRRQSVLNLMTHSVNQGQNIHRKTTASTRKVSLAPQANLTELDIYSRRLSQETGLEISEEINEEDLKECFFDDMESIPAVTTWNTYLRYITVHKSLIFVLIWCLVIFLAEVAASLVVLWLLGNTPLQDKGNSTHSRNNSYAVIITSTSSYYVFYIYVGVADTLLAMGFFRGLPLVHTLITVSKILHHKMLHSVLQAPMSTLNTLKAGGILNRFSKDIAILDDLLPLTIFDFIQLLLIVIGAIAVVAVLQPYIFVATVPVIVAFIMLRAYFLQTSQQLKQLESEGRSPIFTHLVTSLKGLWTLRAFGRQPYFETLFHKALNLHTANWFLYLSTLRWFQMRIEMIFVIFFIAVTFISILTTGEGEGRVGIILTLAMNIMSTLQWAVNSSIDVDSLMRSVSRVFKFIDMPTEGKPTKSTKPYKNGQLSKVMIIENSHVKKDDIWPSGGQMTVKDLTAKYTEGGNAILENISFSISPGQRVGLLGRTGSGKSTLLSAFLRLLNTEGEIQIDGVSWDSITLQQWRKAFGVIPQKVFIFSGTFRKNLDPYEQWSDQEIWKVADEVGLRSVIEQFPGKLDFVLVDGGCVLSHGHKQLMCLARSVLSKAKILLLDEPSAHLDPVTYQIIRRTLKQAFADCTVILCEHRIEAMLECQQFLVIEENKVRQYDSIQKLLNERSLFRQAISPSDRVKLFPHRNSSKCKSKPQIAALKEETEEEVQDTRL

## O[C@](CCN1CCCCC1)(c1ccccc1)[C@H]1CC2C=CC1C2 (mixture of isomers) [Biperiden]
  surface display of ΔF508-CFTR (live cell-surface ELISA): increased

## CN1CCC(=C2c3ccccc3CCc3sccc32)CC1 [Pizotifen, 4-(1-methyl-4-piperidylidine)-9, 1 0-dihydro-4H-benzo-[4,5]cyclohepta[1,2]-thiophene]
  surface display of ΔF508-CFTR (live cell-surface ELISA): increased

## miR-138 mimic: synthetic modified RNA duplex, sense SEQ ID NO: 4, antisense SEQ ID NO: 5, showing miR-138-like activity
  mutant CFTR at the cell surface (ELISA): mutant CFTR reached the cell surface

## SIN3A DsiRNA: Dicer-substrate siRNA against SIN3A, sense SEQ ID NO: 6, antisense SEQ ID NO: 7 (sense GCGAUACAUGAAUUCAGAUACUACC; antisense GGUAGUAUCUGAAUUCAUGUAUCGCUC; chemistry not given here)
  mutant CFTR at the cell surface (ELISA): mutant CFTR reached the cell surface

## COc1cc2ncnc(Nc3cccc(Cl)c3)c2cc1OC [Tyrophostin (AG-1478), N-(3-chlorophenyl)-6,7-dimethoxy-4-quinazolinamine]
  surface display of ΔF508-CFTR (live cell-surface ELISA): increased

From US20150045410A1, “METHOD OF REGULATING CFTR EXPRESSION AND PROCESSING” (University of Iowa Research Foundation, priority 2012, published 2015)
